Results published in US10028960B2, “Pyrimidine compounds as JAK kinase inhibitors” (THERAVANCE BIOPHARMA R&D IP, LLC, priority 2016, dated 2018).
Like-named read-outs stand apart in the source and are kept apart here.

Legend:
[1] = test system: IL-13 induced STAT6 phosphorylation in HT-29 human colorectal adenocarcinoma cells; experiment: Cellular JAK potency assay: inhibition of IL-13 induced STAT6 phosphorylation; format: cell-based; conditions: Homo sapiens
[2] = test system: IL-4 stimulated STAT6 phosphorylation in CD3+ T cells in human PBMCs; experiment: Cellular JAK potency assay: inhibition of IL-4 stimulated pSTAT6 in CD3+ T cells; format: cell-based; conditions: T-cell
Protocol: The potency of test compounds for inhibition of interleukin-4 (IL-4) stimulated STAT6 phosphorylation was measured in CD3-positive (CD3+) T cells in human peripheral blood mononuclear cells (PBMCs) isolated from human whole blood (Stanford Blood Center) using flow cytometry. Because IL-4 signals through JAK, this assay provides a measure of JAK cellular potency.
CD3+ T cells were identified using a […] (PE) conjugated anti-CD3 antibody (Clone UCHT1, BD Biosciences), while an Alexa Fluor 647 conjugated anti-pSTAT6 antibody (pY641, Clone 18/P, BD Biosciences) was used to detect STAT6 phosphorylation.
Human peripheral blood mononuclear cells (PBMC) were isolated from human whole blood of healthy donors using a ficoll gradient. […] After incubation, cells were washed twice in FACS buffer before being analyzed using a LSRII flow cytometer (BD Biosciences).
To determine the inhibitory potency of test compounds in response to IL-4, the median fluorescent intensity (MFI) of pSTAT6 was measured in CD3+ T cells. IC50 values were determined from analysis of the inhibition curves of MFI vs compound concentration. Data are expressed as pIC50 (negative decadic logarithm IC50) values (mean±standard deviation).

[3] = Determination of absorption in cannulated rats; format: in vivo, Sprague Dawley rats; conditions: rat
Protocol: Oral bioavailability (F %), fraction absorbed (Fa %) and fraction escaping hepatic clearance (Fh %) were determined in Sprague Dawley rats from the following two studies:
(1) Pharmacokinetics in rats following an IV dose of test compound: Following IV dosing, plasma samples were typically collected from 0-6 hr. Drug levels were determined using an LC-MS-MS method. The resulting drug levels were used to compute the IV pharmacokinetic parameters: AUC IV and Dose IV.
(2) Rats that have been cannulated in their portal vein (PV) and also in their jugular vein (JV) were dosed orally with test compound. Following oral dosing, plasma samples were typically collected from 0-6 hr from both the portal vein and the jugular vein. Drug levels were determined using an LC-MS-MS method. The resulting drug levels were used to compute the following pharmacokinetic parameters: AUC PO PV, AUC PO JV, and Dose PO.
Using data derived from the above studies, the oral bioavailability F %, and the quantities Fa % and Fh % were calculated from the following formulas: F %=(AUC PO JV/AUC IV)*(Dose IV/Dose PO)*100 Fa %=(AUC PO PV/AUC IV)*(Dose IV/Dose PO)*100 Fh %=AUC PO JV/AUC PO PV
AUC PO JV=Area under the curve following oral dose and plasma collected from the jugular vein
AUC PO PV=Area under the curve following oral dose and plasma collected from the portal vein
AUC IV=Area under the curve following an intravenous dose
Dose IV=Intravenous Dose in mg/kg
Dose PO=Oral Dose in mg/kg

SMILES: COc1cc(Nc2cc(CO)[nH]n2)nc(N(C)[C@@H]2C[C@H]3CCC[C@@H](C2)N3S(=O)(=O)N2CC(C#N)C2)n1 [Example 2, 1-(((1R,3s,5S)-3-((4-((5-(Hydroxymethyl)-1H-pyrazol-3-yl)amino)-6-methoxypyrimidin-2-yl)(methyl)amino)-9-azabicyclo[3.3.1]nonan-9-yl)sulfonyl)azetidine-3-carbonitrile]
- IC50 ([1]; HT-29, cellular assay, Assay 2, read-out: IC50 for inhibition of IL-13): ≤ 0.05 µM
- IC50 ([1]; IL-13 induced STAT6 phosphorylation, HT-29 cells, read-out: HT-29 (pIC50) (converted)): 0.0316 to 0.2 µM
- IC50 ([2]; IL-4 stimulated pSTAT6, CD3+ T cells, read-out: pIC50 value (converted)): ~0.0501 µM
- IC50 ([2]; cellular assay, Assay 4, read-out: IC50 for inhibition of IL-4): ≤ 0.05 µM
- bioavailability ([3]; Sprague Dawley, plasma (jugular vein), oral vs IV, read-out: oral bioavailability (F %)): < 5%
- absorption at the portal vein (Fa %) ([3]; oral, portal vein): less than 25%
